Laboratory results taken from patent US10065990B2, “Cyclic peptide compound, and preparation method, pharmaceutical composition and use thereof” (HANGZHOU GUANYU BIO-MEDICAL CO., LTD, priority 2013, dated 2018).
Read-outs that look alike come from different tables or passages of the source.

Key:
[1] = system: N-87 (human gastric cancer cells); assay: MTT cancer cell growth inhibition; assay type: cell-based; details: MTT, 72 hours incubation, N-87 cells, read-out: GI50 N-87
How it was run: (§1)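 Absorbance at 570 nm of DMSO-dissolved formazan, formed during a 4 h MTT incubation, served as the viability measure. Cells had been exposed 72 h to drug at 10^−5–10^−10 M final; GI50 was calculated from these readings.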

[2] = system: KBM-5 (human chronic myelogenous leukemia); assay: MTT cancer cell growth inhibition; assay type: cell-based; details: MTT, 72 hours incubation, KBM-5 cells, read-out: GI50 KBM-5
How it was run: as §1

[3] = system: BGC-823 (human gastric cancer cells); assay: MTT cancer cell growth inhibition; assay type: cell-based; details: MTT
How it was run: as §1

[4] = system: H1975 (non-small cell lung adenocarcinoma); assay: MTT cancer cell growth inhibition; assay type: cell-based; details: MTT, 72 hours incubation, H1975 cells, read-out: GI50 H1975
How it was run: as §1

[5] = system: HT1080 (human fibrosarcoma cells); assay: MTT cancer cell growth inhibition; assay type: cell-based; details: Homo sapiens, HT-1080, 72 h, MTT
How it was run: as §1

[6] = system: U937 (human leukemia cells); assay: MTT cancer cell growth inhibition; assay type: cell-based; details: Homo sapiens, U-937, 72 h, MTT
How it was run: as §1

[7] = system: Bel-7402 (human hepatoma cells); assay: MTT cancer cell growth inhibition; assay type: cell-based; details: MTT, 72 hours incubation, Bel-7402 cells, read-out: GI50 Bel-7402
How it was run: as §1

[8] = system: Hela (human cervical cancer cells); assay: MTT cancer cell growth inhibition; assay type: cell-based; details: Homo sapiens, HeLa, 72 h, MTT
How it was run: as §1

[9] = system: K562 (human leukemia cells); assay: MTT cancer cell growth inhibition; assay type: cell-based; details: MTT, 72 hours incubation, K562 cells, read-out: GI50 K562
How it was run: as §1

[10] = system: HCC827 (human non-small cell lung cancer cells); assay: MTT cancer cell growth inhibition; assay type: cell-based; details: MTT, 72 hours incubation, HCC827 cells, read-out: GI50 HCC827
How it was run: as §1

[11] = system: DU145 (human prostate cancer cells); assay: MTT cancer cell growth inhibition; assay type: cell-based; details: Homo sapiens, DU-145, 72 h, MTT
How it was run: as §1

HDAC8 = biological target: T1, HDAC8 (Homo sapiens, UniProt Q9BY41); assay: HDAC biochemical activity measurement (fluorescent substrate deacetylation); details: 37° C. 30 minutes
T1 sequence (Q9BY41 1-377): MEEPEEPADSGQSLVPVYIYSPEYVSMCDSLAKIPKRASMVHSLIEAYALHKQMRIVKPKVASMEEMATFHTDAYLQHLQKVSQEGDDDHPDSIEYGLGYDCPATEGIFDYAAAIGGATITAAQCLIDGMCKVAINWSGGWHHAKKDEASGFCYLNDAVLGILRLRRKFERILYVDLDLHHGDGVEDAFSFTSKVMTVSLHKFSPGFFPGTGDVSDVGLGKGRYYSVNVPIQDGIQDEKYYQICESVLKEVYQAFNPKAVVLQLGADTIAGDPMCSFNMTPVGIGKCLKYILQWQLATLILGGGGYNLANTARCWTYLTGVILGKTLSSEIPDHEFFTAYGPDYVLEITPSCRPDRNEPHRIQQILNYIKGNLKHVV

HDAC3 = HDAC3 (Homo sapiens, UniProt O15379); assay: as above;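 note: fluorogenic acetyl-lysine substrate (20 µM) deacetylated by HDAC3, then developer added for 15 min at room temperature, release of fluorophore read at excitation 360 nm, emission 460 nm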
Protocol: The chemical activity of the compound is determined according to the degree of deacetylation inhibition of the HDAC enzyme. This experiment measured the degree of deacetylation related to tumor proliferation and metastasis of HDAC1, HDAC2, HDAC3, HDAC8, HDAC11 five subtypes HDAC enzymes. After the substrate containing an acetylated lysine side chain and HDAC enzyme are labeled with a fluorescent label, the fluorescent substrate is de acetyl. The fluorescent labeled substrate is cleaved by the enzyme, and the fluorescent substance is released, which generates 460 nm emission light under the excitation of 360 nm light.
HDAC substrate was diluted with reaction buffer to 200M (reaction concentration of 20M), the HDAC enzyme was diluted to the appropriate concentration, then added different concentrations of the test compounds and acted at 37° C. 30 minutes, and then added the same volume of 2-times concentration substrate developing solution (developer), incubated at room temperature for 15 minutes.

[12] = Homo sapiens, BGC-823, 72 h, BGC-823 cells, 72 hours incubation, read-out: GI50 BG
[13] = Homo sapiens, BGC-823, 72 h, 72 hours, present invention, read-out: GI50 BGC823, a
[14] = HT1080 cells, 72 hours incubation, read-out: GI50 HT1
[15] = 72 hours, present invention, read-out: GI50 HT1080, a
[16] = 72 hours, present invention, read-out: GI50 U937, a
[17] = U937 cells, 72 hours incubation, read-out: GI50 U93
[18] = Hela cells, 72 hours incubation, read-out: GI50 Hela
[19] = 72 hours, present invention, read-out: GI50 Hela, a
[20] = DU145 cells, 72 hours incubation, read-out: GI50 Du1
[21] = 72 hours, present invention, read-out: GI50 Du145, a
[22] = read-out: IC50 HDAC3, HDAC3, 37° C. 30 minutes
[23] = Homo sapiens, BGC-823, 72 h, 72 hours incubation, read-out: GI50 BG
[24] = 72 hours incubation, read-out: GI50 HT1
[25] = 72 hours incubation, read-out: GI50 U93
[26] = 72 hours incubation, read-out: GI50 Hela
[27] = 72 hours incubation, read-out: GI50 Du1

Chain of HDAC3 (O15379 whole entry, species assumed): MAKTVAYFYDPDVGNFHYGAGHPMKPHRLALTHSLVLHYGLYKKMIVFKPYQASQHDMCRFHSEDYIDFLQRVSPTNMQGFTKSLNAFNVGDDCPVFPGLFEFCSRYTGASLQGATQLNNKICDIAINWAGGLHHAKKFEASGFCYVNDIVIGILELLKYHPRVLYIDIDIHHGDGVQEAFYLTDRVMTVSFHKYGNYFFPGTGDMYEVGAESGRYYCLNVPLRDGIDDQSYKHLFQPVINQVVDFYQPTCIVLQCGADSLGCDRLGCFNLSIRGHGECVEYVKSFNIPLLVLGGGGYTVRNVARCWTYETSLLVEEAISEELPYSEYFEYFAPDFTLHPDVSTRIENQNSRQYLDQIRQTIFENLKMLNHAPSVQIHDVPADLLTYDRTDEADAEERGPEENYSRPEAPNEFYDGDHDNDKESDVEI
Chain of HDAC3 (Q9Y618 395-489 partner limits assumed, species assumed): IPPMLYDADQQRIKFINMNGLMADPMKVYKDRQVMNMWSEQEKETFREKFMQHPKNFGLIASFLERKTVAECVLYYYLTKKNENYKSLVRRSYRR

Structure (SMILES)	GI50 ([1]; Homo sapiens, 72 h) [µM]	GI50 ([2]; Homo sapiens, KBM5, 72 h) [µM]	GI50 [3, 12] [µM]	GI50 ([4]; Homo sapiens, NCI-H1975, 72 h) [µM]	GI50 [5, 14] [µM]	GI50 [6, 17] [µM]	GI50 ([7]; Homo sapiens, Bel-7402, 72 h) [µM]	GI50 [8, 18] [µM]	GI50 ([9]; Homo sapiens, K562, 72 h) [µM]	GI50 ([10]; Homo sapiens, HCC827, 72 h) [µM]	GI50 [11, 20] [µM]	IC50 (HDAC8) [µM]	IC50 (HDAC3; [22]) [µM]	GI50 [3, 23] [µM]	GI50 [5, 24] [µM]	GI50 [6, 25] [µM]	GI50 [8, 26] [µM]	GI50 [11, 27] [µM]	IC50 (HDAC3) [µM]	also measured
C/C=C1\NC(=O)c2cccc(n2)CNC(=O)C[C@@H](/C=C/CCSC(=O)CCCCCCC)OC(=O)CNC1=O [Compound 235]	0.063	0.027	0.04	0.063	0.02	0.06	0.091	0.04	0.042	0.085	0.03	0.047	0.035							GI50 [3, 13]: 0.043 µM; GI50 [5, 15]: 0.024 µM; GI50 [6, 16]: 0.006 µM; GI50 [8, 19]: 0.047 µM; GI50 [11, 21]: 0.003 µM
CCCCCCCC(=O)SCC/C=C/[C@@H]1CC(=O)NCc2cccc(n2)C(=O)NC(CC)C(=O)N[C@@H](C(C)C)C(=O)O1 (stereo partly shown) [Compound 245]	0.053	0.011	0.77	0.028	0.65	0.84	0.087	0.53	0.083	0.096	0.13	0.102	0.052							GI50 [3, 13]: 0.77 µM; GI50 [5, 15]: 0.65 µM; GI50 [6, 16]: 0.84 µM; GI50 [8, 19]: 0.53 µM; GI50 [11, 21]: 0.13 µM
C/C=C1\NC(=O)c2cc(F)cc(n2)CNC(=O)C[C@@H](/C=C/CCSC=O)OC(=O)[C@H](C(C)C)NC1=O [Compound 52]	0.053	0.088		0.061			0.091		0.027	0.091		0.053	0.038	0.05	0.09	0.06	0.08	0.02		
C/C=C1\NC(=O)c2nc(ccc2C)CNC(=O)C[C@@H](/C=C/CCSC(C)=O)OC(=O)[C@H](Cc2ccccc2)NC1=O [Compound 66]	0.061	0.091		0.027			0.034		0.037	0.034		0.026	0.031	0.06	0.03	0.02	0.09	0.03		
C/C=C1\NC(=O)c2nc(ccc2F)CNC(=O)C[C@@H](/C=C/CCSC(C)=O)OC(=O)[C@H](C(C)C)NC1=O [Example 48]												0.014			0.04	0.02	0.07	0.02	0.047	GI50 [1]: 0.081 µM; GI50 [2]: 0.076 µM; GI50 ([3]; 72 hours incubation, read-out: GI50 BG): 0.08 µM; GI50 [4]: 0.028 µM; GI50 [7]: 0.042 µM; GI50 [9]: 0.028 µM; GI50 [10]: 0.042 µM
C/C=C1\NC(=O)c2ccc(F)c(n2)CNC(=O)C[C@@H](/C=C/CCSC(=O)CCCCCCC)OC(=O)[C@H](C)NC1=O [Example 62]	0.064	0.091		0.026			0.083		0.016	0.083		0.037		0.06	0.08	0.02	0.09	0.01	0.037	
C/C=C1\NC(=O)c2cc(SC)cc(n2)CNC(=O)C[C@@H](/C=C/CCSC(C)=O)OC(=O)[C@H](CC)NC1=O [Compound 178]	0.055	0.093	0.06	0.089	0.02	0.09	0.058	0.06	0.053	0.032	0.02	0.036							0.035	
C/C=C1\NC(=O)c2nc(ccc2F)CNC(=O)C[C@@H](/C=C/CCSC(=O)CCCCCC)OC(=O)[C@H](C(C)C)NC1=O [Compound 33]	0.061	0.083		0.026			0.083		0.016	0.083		0.059	0.036	0.06	0.08	0.02	0.08	0.01		
C/C=C1\NC(=O)c2nc(ccc2F)CCNC(=O)C[C@@H](/C=C/CCSC(C)=O)OC(=O)[C@H](C(C)C)NC1=O [Compound 103]	0.051	0.031		0.026			0.025		0.034	0.055		0.016		0.02	0.08	0.05	0.04	0.03	0.053	
